Our source for the solubility and solubility in oils values is patent publication US20080038359A1, “Stable Nanoparticle Formulations” (SANOFI-AVENTIS U.S. LLC, priority 2005, published 2008).

Series [1] is described as follows: Solubility of Compound B in soy oil, estimated visually. In kind it is physicochemical. To be noted: oil or lipid, thermodynamic from solid; visual estimate by gradual addition of soy oil. As to the method: The solubility of Compound B in soy oil was initially estimated visually by gradual addition of soy oil to a weighed amount of the drug substance until the oil was almost clear (visually). An estimate of the drug substance in oil was calculated from the total amount of oil added.

The conditions of series [2]: generally known; cited from earlier work.

SMILES strings stand for the structures.

A word on the solubility: it is the dissolved amount per volume that the medium holds. As to `Cn1c2ccc(F)cc2c2c(C(=O)N3CCCC3)cn(-c3ccccc3)c(=O)c21` [Compound B, 6-Fluoro-9-methyl-2-phenyl-4-(pyrrolidin-1-ylcarbonyl)-2,9-dihydro-1H-pyrido[3,4-b]indol-1-one], in series [1], the solubility was under 1000 µg/mL.

On to `CCCCc1oc2ccc(C(=O)OC(C)C)cc2c1C(=O)c1ccc(CCCN(CCCC)CCCC)cc1.O=C(O)/C=C/C(=O)O` [Compound C, Isopropyl 2-butyl-3-[4-[3-(dibutylamino)propyl]benzoyl]-1-benzofuran-5-carboxylate fumarate], for which, in series [2], the solubility in oils entry is “low solubility”.
